Data published in patent US9949479B2 (priority 2015, dated 2018).
Converted amounts (≈) assume the structure as drawn. “And” between values parts separate entries of the source, which are not always exact repeats. Identical values can stand only once. Like-named read-outs stand apart in the source and are kept apart here.

Experiments:
Tri5 gene = type: cell-based, Fusarium asiaticum
powdery mildew [1] = type: in vivo; conditions: dose as in E162
powdery mildew [2] = type: in vivo
[3] = set-up: species or system wheat; conditions: in vivo
Fusarium asiaticum = test: microbe, parasite or virus in culture; type: cell-based
leaf blight [4] = type: in vivo; conditions: dose as in E145
rust [5] = type: in vivo; conditions: dose as in E162
powdery mildew [6] = type: in vivo; conditions: dose as in E154
Fusarium graminearum = test: microbe, parasite or virus in culture; type: cell-based
powdery mildew fungus = type: in vivo; conditions: seed treatment; dose as in E133
leaf blight [7] = type: in vivo; conditions: dose as in E162
[8] = test system: DON toxin biosynthesis of carbendazim-resistant fusarium asiaticum; test: microbe, parasite or virus in culture; type: cell-based; conditions: for inhibition at 1 µg/mL / inhibition at 10 µg/mL / inhibition at 100 µg/mL / inhibition at 1000 µg/mL / inhibition at 10000 µg/mL: Fusarium asiaticum, read-out: DON Biosynthesis Inhibition Rate
rust [9] = type: in vivo
rust [10] = type: in vivo; remark: listed apart in the source
wheat scab [11] = type: in vivo, Fusarium spp.
wheat scab [12] = type: in vivo, Fusarium spp.; remark: listed apart in the source
[13] = type: in vivo, wheat; conditions: vs control; dose as in E145
[14] = test system: DON toxin synthesis capability of thalli; set-up: species or system Fusarium spp.; conditions: in vivo
[15] = Serial 5: preparation 100, jinggangmycin 20, metconazole 0 g ai./mu
[16] = Fusarium asiaticum, read-out: Growth Inhibition Rate F.a
[17] = Fusarium graminearum, read-out: Growth Inhibition Rate F.g
[18] = Serial 6: preparation 100, jinggangmycin 0, metconazole 20 g ai./mu

For OCC1=C[C@H](NC2C[C@H](CO)[C@@H](OC3O[C@H](CO)[C@@H](O)[C@H](O)[C@H]3O)[C@H](O)[C@H]2O)[C@H](O)[C@@H](O)[C@@H]1O (stereo partly drawn) [Jinggangmycin A, jinggangmycin A], the “Rate of Inhibition on Relative Expression Level of Tri5 Gene” value (Tri5 gene) was 66% and 84% and 87% and 90% and 59%, the “Disease Index Prevention Effect % Powdery Mildew” value (powdery mildew [1]) was 7.3% and 4.4% and 4.5% and 0% and the “Disease Index Prevention Effect % Powdery Mildew” value (powdery mildew [2]; [15]) was 10.6%. The “Thousand Kernel Weight” value [3] was 43.2 g and 42.8 g and 42.9 g and 42.6 g and 42.0 g and 39.6 g, the “Average Fungal Colony Diameter F.a” value (Fusarium asiaticum) was 76.3 mm and 75.6 mm and 69.4 mm and the inhibition at 50 µg/mL (Fusarium asiaticum; [16]) was 7.8%. The “Disease Index Prevention Effect % Leaf Blight” value (leaf blight [4]) was 8.3% and 7.8% and 0%, the “Disease Index Prevention Effect % Rust” value (rust [5]) was 5.1% and 3.6% and 0% and the “Disease Index Prevention Effect % Powdery Mildew” value (powdery mildew [6]) was 0% and 3.4%. For the same molecule, the inhibition at 50 µg/mL (Fusarium graminearum; [17]) was 6.5%, the inhibition at 50 µg/mL (Fusarium graminearum; Fusarium graminearum, read-out: inhibitory effect on the growth of the two types of fusaria) was 6.5 to 7.8% and the “Average Fungal Colony Diameter F.g” value (Fusarium graminearum; Jinggangmycin A 0.1 μg/mL, sensitive strains) was 76.3 mm. The “Average Fungal Colony Diameter F.g” value (Fusarium graminearum; Jinggangmycin A 1.0 μg/mL, sensitive strains) was 76.2 mm, the “Average Fungal Colony Diameter F.g” value (Fusarium graminearum; Jinggangmycin A 10.0 μg/mL, sensitive strains) was 75.4 mm and the “Average Fungal Colony Diameter F.g” value (Fusarium graminearum; Jinggangmycin A 50.0 μg/mL, sensitive strains) was 70.3 mm. The “Incidence Prevention Effect % Powdery Mildew” value (powdery mildew fungus) was 0% and 6.5%, the “Disease Index Prevention Effect % Leaf Blight” value (leaf blight [7]) was 8.5% and 7.9% and 0% and the inhibition at 1 µg/mL ([8]; 168 h) was 28.6%. It also gave an inhibition at 10 µg/mL ([8]; 168 h) of 35.5%, an inhibition at 100 µg/mL ([8]; 168 h) of 45.2% and an inhibition at 1000 µg/mL ([8]; 168 h) of 65.5%. For the same molecule, the inhibition at 10000 µg/mL ([8]; 168 h) was 75.9%, the inhibition at 1 µg/mL ([8]; 336 h) was 1.7% and the inhibition at 10 µg/mL ([8]; 336 h) was 7.87%. The inhibition at 100 µg/mL ([8]; 336 h) was 29.9%, the inhibition at 1000 µg/mL ([8]; 336 h) was 57% and the inhibition at 10000 µg/mL ([8]; 336 h) was 75.4%. The “Disease Index Prevention Effect % Rust” value (rust [9]; Serial 5: preparation 100 g/mu, jinggangmycin 20 g ai./mu alone) was 6.8%, the “Disease Index Prevention Effect % Rust” value (rust [9]; Serial 6: preparation 80 g/mu, jinggangmycin 16 g ai./mu alone) was 6.5% and the “Disease Index Prevention Effect % Rust” value (rust [9]; Serial 7: preparation 40 g/mu, jinggangmycin 8 g ai./mu alone) was 0%. For the same molecule, the “Disease Index Prevention Effect % Rust” value (rust [9]; Serial 8: preparation 20 g/mu, jinggangmycin 4 g ai./mu alone) was 0% and the “Disease Index Prevention Effect % Rust” value (rust [10]; [15]) was 6.5%.

With CC1(C)CCC(Cc2ccc(Cl)cc2)C1(O)Cn1cncn1 (stereo not drawn) [Metconazole] the “Theoretical Prevention Effect on Head Blight %” value (wheat scab [11]; Abbott method, dose as in E162) was 66.7% and 61.8% and 40.9% and 33.6%, the “Disease Index Prevention Effect % Head Blight” value (wheat scab [11]; tank mixture sprayed twice, g ai. agent/mu, Jinggangmycin+Metconazole by row: r11 3+15, r12 5+10, r13 5+5, r14 10+5, r15 50+3, r16 100+3, Jinggangmycin alone r17 100, r18 50, r19 10, r20 5, r21 3, Metconazole alone r22 15, r23 10, r24 5, r25 3, r26 Polyketone 57) was 66.7% and 61.8% and 50.9% and 33.6% and the “Disease Index Prevention Effect % Powdery Mildew” value (powdery mildew [2]; [18]) was 78.2%. The “Thousand Kernel Weight” value [3] was 43.4 g and 42.8 g and 42.4 g and 40.4 g, the ED50 (Fusarium asiaticum) was 0.114 µg/mL and 0.112 µg/mL and 0.116 µg/mL and the inhibition at 0.0625 µg/mL (Fusarium asiaticum; [16]) was 30.7%. The inhibition at 0.125 µg/mL (Fusarium asiaticum; [16]) was 58.6%, the inhibition at 0.25 µg/mL (Fusarium asiaticum; [16]) was 75.6% and the inhibition at 0.5 µg/mL (Fusarium asiaticum; [16]) was 89.2%. The inhibition at 1 µg/mL (Fusarium asiaticum; [16]) was 95.9%, the “Theoretical Prevention Effect of Mixed Agent on Head Blight” value (wheat scab [12]; Abbott method, dose as in E145) was 65.8 and 61.3 and 48.4 and 39.6 and the “Disease Index Prevention Effect % Head Blight” value (wheat scab [12]; sprayed twice, g ai. agent/mu, Jinggangmycin+Metconazole by row: r16 1+15, r17 3+10, r18 5+5, r19 5+10, r20 5+15, r21 10+3, r22 10+10, r23 10+15, r24 50+3, r25 50+10, r26 50+15, r27 100+5, r28 100+10, Jinggangmycin alone r29 100, r30 50, r31 10, r32 5, r33 3, r34 1, Metconazole alone r35 15, r36 10, r37 5, r38 3, r39 Carbendazim 40) was 65.8% and 61.3% and 48.4% and 39.6%. The “DON Reduction Percentage (%)” value [13] was 88.4% and 79.9% and 71.4% and 66.6%, the “Disease Index Prevention Effect % Powdery Mildew” value (powdery mildew [6]) was 52.6% and 65.3% and 71.8% and 82.2% and the ED50 (Fusarium graminearum; F.g sensitive strains) was 0.117 µg/mL (≈ 0.366 µM). It also gave an inhibition at 0.0625 µg/mL (Fusarium graminearum; [17]) of 30.7%, an inhibition at 0.125 µg/mL (Fusarium graminearum; [17]) of 58.5% and an inhibition at 0.25 µg/mL (Fusarium graminearum; [17]) of 75.7%. The inhibition at 0.5 µg/mL (Fusarium graminearum; [17]) was 89.1%, the inhibition at 1 µg/mL (Fusarium graminearum; [17]) was 96% and the inhibition at 0.1 µg/mL (Fusarium graminearum; Fusarium graminearum, read-out: inhibition rate on the hyphal growth of the head blight fungi) was ~50%. For the same molecule, the “Average Fungal Colony Diameter F.g” value (Fusarium graminearum; Metconazole 0.0625 μg/mL, sensitive strains) was 52.1 mm, the “Average Fungal Colony Diameter F.g” value (Fusarium graminearum; Metconazole 0.125 μg/mL, sensitive strains) was 31.2 mm and the “Average Fungal Colony Diameter F.g” value (Fusarium graminearum; Metconazole 0.25 μg/mL, sensitive strains) was 18.3 mm. For the same molecule, the “Average Fungal Colony Diameter F.g” value (Fusarium graminearum; Metconazole 0.5 μg/mL, sensitive strains) was 8.2 mm, the “Average Fungal Colony Diameter F.g” value (Fusarium graminearum; Metconazole 1.0 μg/mL, sensitive strains) was 3.0 mm and the “activity of metconazole relative to carbendazim (ED50)” value (Fusarium graminearum; sensitive strains) was “about four times”. For the same molecule, the “activity of metconazole relative to phenamacril (ED50)” value (Fusarium graminearum; sensitive strains) was “about 1.5 times”, the “Incidence Prevention Effect % Powdery Mildew” value (powdery mildew fungus) was 75.0% and 68.5% and 61.0% and 40.0% and the “DON Biosynthesis Inhibition Rate” value [8] was 0.66% and −0.34%. The “Toxin Production Capability” value [8] was 87.42 μgDON/g by dry weight of hyphae and 52.50 μgDON/g by dry weight of hyphae, the “Disease Index Prevention Effect % Rust” value (rust [9]; Serial 9: preparation 100 g/mu, metconazole 20 g ai./mu alone) was 84.4% and the “Disease Index Prevention Effect % Rust” value (rust [9]; Serial 10: preparation 80 g/mu, metconazole 16 g ai./mu alone) was 77.3%. The “Disease Index Prevention Effect % Rust” value (rust [9]; Serial 11: preparation 40 g/mu, metconazole 8 g ai./mu alone) was 70.6%, the “Disease Index Prevention Effect % Rust” value (rust [9]; Serial 12: preparation 20 g/mu, metconazole 4 g ai./mu alone) was 63.8% and the “DON Synthesis Capability” value [14] was 20.16 and 19.80 and 19.96 and 19.54 and 19.20 and 19.38. For the same molecule, the “Disease Index Prevention Effect % Rust” value (rust [10]; [18]) was 85.0%.
